Data on 1 compound can be found in paper PMC4438431 (2015).

Each structure is given as a SMILES string.

Common to all, as to test: CD titration, Hyperquad 2003 fit
For experiment [1], the system named is c-kitG20T (DNA, G4) AGGGAGGGCGCTGGGAGGATGG
Particulars: K+ (17 mM K2HPO4/KH2PO4); pH 7.40, 5% DMSO, 20 °C; site 1 of 2, stepwise 1:1; second G4 1.1 × 10^5 M^-1.

Experiment [2] has as its system c-mycTGA-de (DNA, G4) GGGTGGGGAGGGTGGGGAA
Particulars: K+ (17 mM K2HPO4/KH2PO4); pH 7.40, 5% DMSO, 20 °C; site 1 of 2, stepwise 1:1; second G4 2.8 × 10^2 M^-1.

Experiment [3] relates to c-myc1245 (DNA, G4) TGAGGGTGGGTTTTTAGGGTGGGGAA
Particulars: K+ (17 mM K2HPO4/KH2PO4); pH 7.40, 5% DMSO, 20 °C; conflict: Figure S38 legend prints (5.1 ± 0.2) × 10^4.

As to `Cn1c2cccc(n2)n(C)c2cccc(n2)n(C)c2cccc(n2)n(C)c2cccc(n2)n(C)c2cccc(n2)n(C)c2cccc1n2`, in experiment [1], the Ka1 entry is “(9.4 ± 0.4) × 10^4 M^-1”. Further, the Ka result is listed as “(5.1 ± 0.2) × 10^4 M^-1” in experiment [2] and “(1.3 ± 0.05) × 10^6 M^-1” in experiment [3].
